Laboratory results reported in article PMC5300203, “O-prenylated 3-carboxycoumarins as a novel class of 15-LOX-1 inhibitors” (PLoS ONE, 2017).
Read-outs that look alike come from different tables or passages of the source.

Tests used:
human 15-LOX-1 = target: T1, human 15-LOX-1 (Homo sapiens, UniProt P16050); test: Lipoxygenase inhibitory assessment (DMAB-MBTH peroxide method, linoleic acid substrate); type: biochemical
T1 construct: Human 15-LOX-1 was prepared from isolated human eosinophil based on the procedure reported by Sigal et al; from tissue; host or cells: eosinophils purified from blood of hypereosinophilic human donors; 100,000 g supernatant, 30% and 60% ammonium sulfate pellets
T1 sequence (P16050 1-662): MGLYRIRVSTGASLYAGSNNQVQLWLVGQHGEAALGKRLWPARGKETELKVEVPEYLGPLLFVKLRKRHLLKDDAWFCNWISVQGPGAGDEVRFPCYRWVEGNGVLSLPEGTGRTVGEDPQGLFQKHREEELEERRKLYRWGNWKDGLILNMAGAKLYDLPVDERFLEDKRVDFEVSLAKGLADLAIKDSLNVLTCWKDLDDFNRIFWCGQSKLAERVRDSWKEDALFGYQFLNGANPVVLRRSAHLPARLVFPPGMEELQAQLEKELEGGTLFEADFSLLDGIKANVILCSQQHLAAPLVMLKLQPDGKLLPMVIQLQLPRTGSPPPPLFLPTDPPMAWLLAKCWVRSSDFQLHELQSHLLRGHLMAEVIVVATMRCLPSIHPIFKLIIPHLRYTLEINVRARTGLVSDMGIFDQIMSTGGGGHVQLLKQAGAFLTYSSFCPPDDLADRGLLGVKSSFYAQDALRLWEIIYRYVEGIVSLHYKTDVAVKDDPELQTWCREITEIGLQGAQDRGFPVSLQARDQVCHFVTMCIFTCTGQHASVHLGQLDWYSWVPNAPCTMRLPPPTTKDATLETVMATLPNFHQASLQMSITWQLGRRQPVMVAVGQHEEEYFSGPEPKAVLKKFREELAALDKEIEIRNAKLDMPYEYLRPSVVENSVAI
Protocol: The inhibitory activity of the synthetic compounds against human 15-LOX-1 was determined utilizing modified catalytic oxidative coupling of 3-methyl-2-benzothiazolinone (MBTH) with 3-(dimethylamino)benzoic acid (DMAB) as reported in previous studies. In this method, the basis for the determination of lipoxygenase activity is the measurement of peroxide concentration. Human 15-LOX-1 was prepared from isolated human eosinophil based on the procedure reported by Sigal et al. […] Because of the instability of the purified 15-LOX-1, the crude form of the enzyme was utilized. Eosinophils from blood of hypereosinophilic donors (8–11% eosinophils) were purified to more than 85% through “hypotonic lysis and centrifugation” method reported by Samoszuk.
Linoleic acid and two assay solutions (A and B) were prepared in advance.
Solution A was 50 mM DMAB in an l00 mM phosphate buffer (pH 7.0). Solution B was a mixture of l0 mM MBTH (3 mL), hemoglobin (5 mg/mL, 3 mL) in 50 mM phosphate buffer at pH 5.0 (25 ml). A linoleic acid solution was prepared by mixing 5.6 mg of linoleic acid (Sigma Aldrich, L1376) with 0.5 mL methanol and then diluted with KOH 100 mM to a final volume of 5 mL (4 mM).
In the standard assay, the sample in DMSO (12.5 μL), 15-LOX-1 (104 units/mL; 30 μL) and phosphate buffer, pH 7.0 (50 mM; 435 μL) were mixed in 48 well plate and perincubation was carried out for 10 min at 30°C. A control test was done with the same volume of ethanol. After the preincubation, linoleic acid solution (25 μL) was added to start the peroxidation reaction at 30°C, and, 10 min later, solution A (135 μL) and then solution B (65 μL) was added to start the color formation. Further, 3 min later, 100 μL of a 2% SDS solution was added to terminate the reaction. The absorbance at 598 nm was compared with the control test. These experiments were performed in triplicate. The data analysis was performed using GraphPad Prism 5.01.

[1] = human 15-LOX-1 from eosinophils (crude), linoleic acid, 30°C, ± SD (n = 3), read-out: IC50
[2] = human 15-LOX-1 from eosinophils (crude), linoleic acid, 30°C, ± SD (n = 3)

Row | IC50 (human 15-LOX-1; [1]) [µM] | melting point [°C] | SMILES | IC50 (human 15-LOX-1) [µM] | lower lipoxygenase inhibitory potency compared to the corresponding carboxylate-off analog (human 15-LOX-1; 3-carboxycoumarin vs farnesyloxycoumarin without carboxylic acid (d vs d')) [folds] | IC50 (human 15-LOX-1; [2]) [µM] | higher lipoxygenase inhibitory activity compared to the corresponding carboxylate-off analog (human 15-LOX-1; 3-carboxycoumarin vs farnesyloxycoumarin without carboxylic acid (4d vs 4d')) [folds]
1 | 16.8 ± 1.1 | – | Cc1nc(N2CCN(C)CC2)nc2c1Sc1ccccc1N2 [Compound 4-MMPB, 4-methyl-2-(4-methylpiperazinyl)pyrimido[4,5-b]benzothiazine, reference compound] | – | – | – | –
2 | 20.4 ± 2.2 | 100 to 101 | CC(C)=CCC/C(C)=C/COc1cccc2cc(C(=O)O)c(=O)oc12 [Compound 18c, 8-((E)-3,7-dimethylocta-2,6-dienyloxy)-2-oxo-2H-chromene-3-carboxylic acid] | – | – | – | –
3 | 227 ± 22.1 | 158 to 159 | CC(C)=CCOc1ccc2oc(=O)c(C(=O)O)cc2c1 [Compound 8b, 6-(3-methylbut-2-enyloxy)-2-oxo-2H-chromene-3-carboxylic acid] | – | – | – | –
4 | – | 87 to 90 | CC(C)=CCC/C(C)=C/CC/C(C)=C/COc1ccc2cc(C(=O)O)c(=O)oc2c1 [Compound 12d, 7-((2E,6E)-3,7,11-trimethyldodeca-2,6,10-trienyloxy)-2-oxo-2H-chromene-3-carboxylic acid] | – | – | – | –
5 | 293 ± 20.3 | 198 to 200 | C=CCOc1cccc2cc(C(=O)O)c(=O)oc12 [Compound 18a, 8-(allyloxy)-2-oxo-2H-chromene-3-carboxylic acid] | – | – | – | –
6 | 93.5 ± 7.6 | 115 to 117 | C=CCOc1cccc2oc(=O)c(C(=O)O)cc12 [Compound 4a, 5-(allyloxy)-2-oxo-2H-chromene-3-carboxylic acid] | – | – | – | –
7 | 4.8 ± 0.55 | 49 to 50 | CC(C)=CCC/C(C)=C/COc1cccc2oc(=O)c(C(=O)O)cc12 [Compound 4c, 5-((E)-3,7-dimethylocta-2,6-dienyloxy)-2-oxo-2H-chromene-3-carboxylic acid] | – | – | – | –
8 | 114 ± 10.1 | 205 to 207 | C=CCOc1ccc2cc(C(=O)O)c(=O)oc2c1 [Compound 12a, 7-(allyloxy)-2-oxo-2H-chromene-3-carboxylic acid] | – | – | – | –
9 | 296 ± 26.3 | 167 to 168 | C=CCOc1ccc2oc(=O)c(C(=O)O)cc2c1 [Compound 8a, 6-(allyloxy)-2-oxo-2H-chromene-3-carboxylic acid] | – | – | – | –
10 | 21.5 ± 1.6 | 130 to 131 | CC(C)=CCC/C(C)=C/COc1ccc2oc(=O)c(C(=O)O)cc2c1 [Compound 8c, Ethyl 6-((E)-3,7-dimethylocta-2,6-dienyloxy)-2-oxo-2H-chromene-3-carboxylic acid] | – | – | – | –
11 | 62.5 ± 5.9 | 85 to 86 | CC(C)=CCOc1cccc2oc(=O)c(C(=O)O)cc12 [Compound 4b, 5-(3-methylbut-2-enyloxy)-2-oxo-2H-chromene-3-carboxylic acid] | – | – | – | –
12 | 263 ± 23 | 143 to 144 | CC(C)=CCOc1cccc2cc(C(=O)O)c(=O)oc12 [Compound 18b, 8-(3-methylbut-2-enyloxy)-2-oxo-2H-chromene-3-carboxylic acid] | – | – | – | –
13 | 81.3 ± 5.3 | 147 to 148 | CC(C)=CCOc1ccc2cc(C(=O)O)c(=O)oc2c1 [Compound 12b, 7-(3-methylbut-2-enyloxy)-2-oxo-2H-chromene-3-carboxylic acid] | – | – | – | –
14 | 12.1 ± 0.91 | 118 to 119 | CC(C)=CCC/C(C)=C/COc1ccc2cc(C(=O)O)c(=O)oc2c1 [Compound 12c, 7-((E)-3,7-dimethylocta-2,6-dienyloxy)-2-oxo-2H-chromene-3-carboxylic acid] | – | – | – | –

Row | SMILES | IC50 (human 15-LOX-1; [1]) [µM] | melting point [°C] | IC50 (human 15-LOX-1) [µM] | lower lipoxygenase inhibitory potency compared to the corresponding carboxylate-off analog (human 15-LOX-1; 3-carboxycoumarin vs farnesyloxycoumarin without carboxylic acid (d vs d')) [folds] | IC50 (human 15-LOX-1; [2]) [µM] | higher lipoxygenase inhibitory activity compared to the corresponding carboxylate-off analog (human 15-LOX-1; 3-carboxycoumarin vs farnesyloxycoumarin without carboxylic acid (4d vs 4d')) [folds]
15 | CC(C)=CCC/C(C)=C/CC/C(C)=C/COc1ccc2oc(=O)c(C(=O)O)cc2c1 [Compound 8d, 6-((2E,6E)-3,7,11-trimethyldodeca-2,6,10-trienyloxy)-2-oxo-2H-chromene-3-carboxylic acid] | – | 98 to 99 | 10.4 ± 2.1 | 10 | 1.0 ± 0.06 | –
16 | CC(C)=CCC/C(C)=C/CC/C(C)=C/COc1cccc2oc(=O)c(C(=O)O)cc12 [Compound 4d, 5-((2E,6E)-3,7,11-trimethyldodeca-2,6,10-trienyloxy)-2-oxo-2H-chromene-3-carboxylic acid] | – | 39 to 40 | 0.74 ± 0.05 | – | 1.6 ± 0.08 | 2
